Measurements: patent US20120238623A1, “Inflammation and Autoimmune Disorder Treatment using RARa Selective Agonists” (priority 2011, published 2012)

Tests used:
RARα = target: T1, RARα (Homo sapiens, UniProt P10276); test: displacement assay to measure agonist binding affinity; details: read-out: Binding Affinities for RARα
T1 sequence (P10276 1-462): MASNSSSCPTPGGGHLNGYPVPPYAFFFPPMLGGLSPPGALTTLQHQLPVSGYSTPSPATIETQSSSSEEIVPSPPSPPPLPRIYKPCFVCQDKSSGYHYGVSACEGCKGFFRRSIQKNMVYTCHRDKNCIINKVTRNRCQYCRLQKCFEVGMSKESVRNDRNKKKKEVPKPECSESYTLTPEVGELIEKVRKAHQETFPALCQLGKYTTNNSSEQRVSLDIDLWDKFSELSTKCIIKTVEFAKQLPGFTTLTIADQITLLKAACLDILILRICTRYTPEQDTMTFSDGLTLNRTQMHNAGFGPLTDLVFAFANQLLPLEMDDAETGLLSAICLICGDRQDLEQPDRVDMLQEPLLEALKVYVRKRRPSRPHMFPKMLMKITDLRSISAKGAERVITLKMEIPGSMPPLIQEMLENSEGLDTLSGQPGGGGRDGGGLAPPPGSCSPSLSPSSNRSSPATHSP

RARβ = target: T2, RARβ (Homo sapiens, UniProt P10826); test: as above; details: read-out: Binding Affinities for RARβ
T2 sequence (P10826 1-455): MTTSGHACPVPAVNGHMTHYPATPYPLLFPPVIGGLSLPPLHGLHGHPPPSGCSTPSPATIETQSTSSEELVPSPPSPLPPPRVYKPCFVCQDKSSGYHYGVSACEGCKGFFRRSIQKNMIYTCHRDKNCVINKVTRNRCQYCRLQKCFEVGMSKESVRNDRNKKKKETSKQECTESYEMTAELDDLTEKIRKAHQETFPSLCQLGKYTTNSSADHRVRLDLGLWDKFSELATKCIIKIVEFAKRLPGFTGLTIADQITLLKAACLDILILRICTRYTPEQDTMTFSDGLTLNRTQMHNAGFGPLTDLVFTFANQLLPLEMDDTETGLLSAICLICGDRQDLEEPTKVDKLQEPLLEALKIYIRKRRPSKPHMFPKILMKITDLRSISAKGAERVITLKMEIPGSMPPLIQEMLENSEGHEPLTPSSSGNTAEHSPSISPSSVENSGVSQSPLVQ

RARγ = target: T3, RARγ (Homo sapiens, UniProt P13631); test: as above; details: read-out: Binding Affinities for RARγ
T3 sequence (P13631 1-454): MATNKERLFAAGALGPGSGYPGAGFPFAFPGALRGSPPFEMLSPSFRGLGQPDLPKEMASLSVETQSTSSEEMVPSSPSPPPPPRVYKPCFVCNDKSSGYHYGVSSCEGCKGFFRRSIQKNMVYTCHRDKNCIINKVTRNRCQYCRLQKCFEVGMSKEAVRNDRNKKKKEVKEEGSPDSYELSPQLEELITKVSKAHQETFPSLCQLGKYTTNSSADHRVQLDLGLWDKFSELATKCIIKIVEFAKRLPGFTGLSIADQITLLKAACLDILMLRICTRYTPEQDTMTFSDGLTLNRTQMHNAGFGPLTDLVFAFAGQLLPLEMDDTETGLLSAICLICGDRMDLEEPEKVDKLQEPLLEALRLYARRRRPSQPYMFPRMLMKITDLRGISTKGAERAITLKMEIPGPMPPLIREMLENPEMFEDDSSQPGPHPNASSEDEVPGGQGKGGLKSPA

RARα, RARβ, and RARγ = test: transactivation assay to measure agonist activity; type: cell-based; details: FIG. 2
Source text: Other RARα selective agonists useful as a compound disclosed herein are described in, e.g., Teng, et al., Aryl or Heteroaryl Amides of Tetrahydronaphthalene, Chroman, Thiochroman and 1,2,3,4-Tetrahydroquinoline Carboxylic Acids, Having an Electron Withdrawing Substituent in the Aromatic Or Heteroaromatic Moiety, Having Retinoid-Like Biological Activity, U.S. Pat. No. 5,856,490; Teng, et al., Methods of Treatment with Compounds Having RARα Receptor Specific or Selective Activity, U.S. Pat. No. 5,965,606; and Nehma, et al., Treatment of Tumors with RARα Selective Retinoid Compounds in Combination with Other Anti-Tumor Agents, U.S. Pat. No. 6,387,950; each of which is incorporated by reference in its entirety. […] Assays by which a compound can be tested and established whether or not it is an RARα selective agonist, are known in the art and are described in numerous prior art publications and patents.

[1] = test system: Naive CD4+ CD25− FoxP3− cells; test: Treg cell differentiation (FoxP3-GFP expression by flow cytometry) in vitro; type: cell-based, mouse; details: αCD3, IL-2 and TGF-β
Description: Purified CD4+ CD25^− FoxP3^− cells were cultured in media with the specified concentration of each RAR agonist and analyzed by flow cytometry for FoxP3 (A), α4β7 (B), and CCR9 (C) expression in total CD4 T cells. FoxP3 results are representative of 3 independent experiments. CCR9 and α4β7 results are representative of multiple experiments.
It is important to determine which of the RAR (RARα, RARβ, RARγ) signaling pathways is important in the induction of Foxp3 expression. To determine this, naive CD4^+ CD25^− FoxP3^− cells were purified from a Foxp3-GFP mouse using flow cytometry by sorting and isolating based upon a GFP^− phenotype. These cells were activated polyclonally with αCD3 in vitro in the presence of IL-2 and TGF-β. To identify the RAR involved in RA-induced, the cultured cells were incubated with RAR selective agonists. The cultured cells were then score for the frequency of GFP+ (Foxp3+). With respect to the use of selective agonists, only the RARα agonist exerted significant impact on the expression of Foxp3 inducing nearly 100% Foxp3+ T cells, with enhancement on the expression of α4β7 and CCR9 (gut homing receptors) (FIG. 1). The RARγ and RARβ agonists were without effect.
(§1) To determine whether a RARα selective agonist could affect T cell differentiation, T cells were incubated with a RARα selective agonist to determine its effect on Foxp3 expression evaluated. Naive CD4^+ CD25^− FoxP3^− cells were purified from a Foxp3-GFP mouse using flow cytometry by sorting and isolating based upon a GFP^− phenotype. These cells were activated polyclonally with αCD3 in vitro in the presence of IL-2 and TGF-β. These cells were then cultured in media with various concentrations of compound 5183 (a RARα selective agonist) and the expression of FoxP3-GFP was analyzed by flow cytometry. The RARα selective agonist compound 5183 enhanced differentiation of immunosuppressive Treg cells and inhibited differentiation of inflammatory TH17 cells from Naïve T cells in vitro (Table 2).

Naïve T cells = test: Th17 cell differentiation from Naïve T cells in vitro; type: cell-based, mouse
Description: as §1

CD4+ T cells = test: in vivo FoxP3 expression in CD4+ T cells of blood and spleen; set-up: species or system mouse; details: mice, 100 μg every other day for 10 days
Description: To expand on the finding above, the in vivo effects of a RARα selective agonist on T cell differentiation was evaluated in a mouse model. Mice were treated 100 μg of compound 5183 (a RARα agonist) or an equivalent volume of DMSO (vehicle control) every other day for 10 days. Lymphocytes from the blood and spleen were then isolated and FoxP3 expression in CD4^+ T cells was assessed.

[2] = test system: experimental autoimmune encephalomyelitis (EAE); test: experimental autoimmune encephalomyelitis (EAE) mouse model; type: in vivo, SJL mice
Description: To determine if RARα selective agonists reduce symptoms associated with an autoimmune disorder, the effects of a RARα selective agonist was evaluated in an experimental autoimmune encephalomyelitis (EAE) mouse model. EAE is an inflammatory disease of the central nervous system widely used as a model of multiple sclerosis in which Th17 cells are the principle mediators of the symptoms observed. […] In one set of experiments, the effects of prophylactic dosing were assessed. Mice were administered 1 mg/kg of compound 5183 intraperitoneally every other day starting day 1 after EAE induction. In a second set of experiments, the effects of therapeutic dosing were assessed. Mice were administered 2 mg/kg of compound 5183 intraperitoneally every other day starting day 7 after EAE induction. Clinical parameters of disease (loss of bodyweight and paralysis/paresis) were monitored on a daily basis.

Kd (RARα): 0.0047 µM
Kd (RARβ): > 10 µM
Kd (RARγ): > 10 µM
Compound: CC1(C)CCC(C)(C)c2c1cc(C(=O)Nc1cc(F)c(C(=O)O)c(F)c1)c(O)c2Cl [Compound 5183]
activation of transcription from RARα, RARβ, and RARγ (RARα, RARβ, and RARγ): specifically activates RARα
Treg cell Percent Differentiation (%) ([1]; 0.1 nM): 26%
Treg cell Percent Differentiation (%) ([1]; 1 nM): 55%
Treg cell Percent Differentiation (%) ([1]; 10 nM): 90%
Th17 cell Percent Differentiation (%) (Naïve T cells; 0.1 nM): 32%
Th17 cell Percent Differentiation (%) (Naïve T cells; 1 nM): 21%
Th17 cell Percent Differentiation (%) (Naïve T cells; 10 nM): 11%
Th17 cell Percent Differentiation (%) (Naïve T cells; 100 nM): 5%
Foxp3+ Expression (%) (CD4+ T cells; Blood): 4.3%
Foxp3+ Expression (%) (CD4+ T cells; Spleen): 25%
symptoms associated with EAE (loss of bodyweight and paralysis/paresis) ([2]; prophylactic dosing: 1 mg/kg intraperitoneally every other day starting day 1 after EAE induction): reduced symptoms associated with EAE
symptoms associated with EAE (loss of bodyweight and paralysis/paresis) ([2]; therapeutic dosing: 2 mg/kg intraperitoneally every other day starting day 7 after EAE induction): reduced symptoms associated with EAE
